Data: publication PMC9942192 (ACS Synthetic Biology, 2023)

Target: T1, AtSWEET4 (Arabidopsis thaliana, UniProt Q944M5)
T1 sequence (Q944M5 1-251): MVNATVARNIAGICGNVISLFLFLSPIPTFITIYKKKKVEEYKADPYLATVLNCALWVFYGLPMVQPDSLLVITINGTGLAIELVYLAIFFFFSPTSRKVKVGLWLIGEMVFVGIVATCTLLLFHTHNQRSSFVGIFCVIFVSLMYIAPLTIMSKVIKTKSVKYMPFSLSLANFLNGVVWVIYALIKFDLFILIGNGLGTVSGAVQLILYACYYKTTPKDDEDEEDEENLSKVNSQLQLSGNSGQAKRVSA
Test: […]-radiolabeled uptake in yeast EBY4000
Format: cell-based
Settings: labelled compound; positive control; n = 3

Structure (SMILES)	uptake
OCC1(O)OC[C@@H](O)[C@@H](O)[C@@H]1O (stereo partly drawn) [D-fructose]	D-mannose and D-fructose transporter AtSWEET4 serves as a positive control
OC[C@H]1OC(O)[C@@H](O)[C@@H](O)[C@@H]1O (stereo partly drawn) [D-mannose]	D-mannose and D-fructose transporter AtSWEET4 serves as a positive control
